Tested on: SUM149PT spheroids with HUVEC/MSC, viability
Assay: Anticancer human tumor SUM149PT cell line growth inhibition [GQUAD];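 further: spheroids exposed to drugs for seven days before readout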;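 on viability, T/C: percent viability relative to DMSO vehicle control taken as 100%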
Conditions: for IC50: curve of first compound; for viability, T/C: stronger effect = lower value
From the text: DNA G-quadruplex Stabilizer Agents in Combinations in Complex Spheroids
A high-throughput screen of multi-cell type tumor spheroids was designed to identify active combinations of DNA G-quadruplex stabilizer agents and targeted small molecules. Complex spheroids include a stromal component modeled by human endothelial cells (HUVEC) and fibroblasts modeled by human mesenchymal stem cells (MSCs). The concentration ranges selected for each drug and investigational agent were based upon clinically achievable concentrations if the clinical Cmax of the agent was known.
Compounds. The drugs and investigational agents: pidnarulex (CX-5461; NSC782164), APTO-253 (NSC789042), BRACO-19 (NSC847499), peposertib (NSC802822), ceralasertib (NSC780249), elimusertib (NSC800525), camonsertib (NSC841442), AZD-1390 (NSC803789), olaparib (NSC753686), talazoparib (NSC767125), ART-558 (NSC835418), sotorasib (NSC818433), MRTX-1133 (NSC836407), SN-38 (NSC673596), topotecan (NSC609699), etoposide (NSC141540), doxorubicin (NSC123127), gemcitabine (NSC613327), 5-fluorouracil (NSC19893), paclitaxel (NSC125973), vemurafenib (NSC761431), panobinostat (NSC761190), R-306465 (JNJ-16241199; NSC773264), adavosertib (NSC754352), TP-3654 (NSC805149), carboplatin (NSC241240), KSQ-4279 (NSC840948), and staurosporine (NSC755774) were obtained from the National Cancer Institute (NCI) Developmental Therapeutics Program Chemical Repository (34). The FDA-approved anticancer drug set is available from the NCI Developmental Therapeutics Program. […] The stock solutions were prepared in dimethyl sulfoxide (DMSO, Sigma-Aldrich, St. Louis, MO, cat. D2650) at 800-fold the tested concentration and stored at -70 degrees C prior to their use. All drugs and investigational agents were tested over a range starting from a high concentration at or near the clinical Cmax and decreasing in half-log increments. If the clinical Cmax for an agent had not been determined, the highest concentration tested was 10 microM.
2.3 Cell Culture. All cells were maintained in an incubator at 37 degrees C and 5% CO2 with 95% humidity. The PDC lines were cultured according to standard operating procedures established by the NCI PDMR. All PDCs were thawed and cultured in Matrigel-coated flasks prepared with a working solution of 1X Ham's F-12 nutrient mix, without supplementation (Invitrogen, cat. 11765054), 100 U/mL penicillin-streptomycin (Invitrogen, cat. 15140122), and 2.5% Matrigel (Corning Inc., cat. 354248) for the first three passages. The 857933-349-R-J2-PDC line was cultured in 6C/Colon 1B media, which includes advanced DMEM/F-12 (Thermo Fisher Scientific, cat. 12634028), 10 mM HEPES (Thermo Fisher Scientific, cat. 15630080), 1X GlutaMAX supplement (Thermo Fisher Scientific, cat. 35050061), 0.1 mg/mL primocin (InvivoGen, cat. ant-pm-2), 10% defined fetal bovine serum, heat inactivated (HyClone Laboratories Inc., cat. SH30070.03HI), 50% L-WRN conditioned media (ATCC, cat. CRL-3276), 1.25 mM N-Acetyl-L-cysteine (Sigma-Aldrich, cat. A9165), 10 mM nicotinamide (Sigma-Aldrich, cat. N0636), 1X B-27 supplement (Thermo Fisher Scientific, cat. 17504044), 1X N-2 supplement (Thermo Fisher Scientific, cat. 17502048), 10 microM Y-27632 dihydrochloride (Tocris Bioscience, cat. 1254), and 50 ng/mL human EGF recombinant protein (Thermo Fisher Scientific, cat. PHG0311). The 485176-168-R4-J1-PDC line was cultured in Panc media, which includes all 6C/Colon 1B media components plus 100 ng/mL human FGF-10 (Thermo Fisher Scientific, cat. 100-26), 500 nM SB-431542 (Selleckchem, cat. S1067), and gastrin (Tocris, cat. 3006).
[…]

## CC(C)n1c(=O)n(C)c2cnc3cc(F)c(-c4ccc(OCCCN5CCCCC5)nc4)cc3c21 + Cc1[nH]c2ccc(F)cc2c1-c1nc2c3cccnc3c3ncccc3c2[nH]1
Second compound 0.0316 µM
  IC50: > 10 µM
Second compound 0.1 µM
  IC50: > 10 µM
Second compound 0.316 µM
  IC50: > 10 µM
Second compound 1 µM
  IC50: > 10 µM
Second compound 3.16 µM
  IC50: > 10 µM
Second compound 10 µM
  IC50: > 10 µM
Second compound 0.0316 µM, first compound 0.0316 µM
  viability, T/C: 86.3%
Second compound 0.0316 µM, first compound 0.1 µM
  viability, T/C: 80.9%
Second compound 0.0316 µM, first compound 0.316 µM
  viability, T/C: 104%
Second compound 0.0316 µM, first compound 1 µM
  viability, T/C: 96.4%
Second compound 0.0316 µM, first compound 3.16 µM
  viability, T/C: 98.1%
Second compound 0.0316 µM, first compound 10 µM
  viability, T/C: 67.7%
Second compound 0.1 µM, first compound 0.0316 µM
  viability, T/C: 97.8%
Second compound 0.1 µM, first compound 0.1 µM
  viability, T/C: 90.8%
Second compound 0.1 µM, first compound 0.316 µM
  viability, T/C: 88%
Second compound 0.1 µM, first compound 1 µM
  viability, T/C: 101%
Second compound 0.1 µM, first compound 3.16 µM
  viability, T/C: 98.5%
Second compound 0.1 µM, first compound 10 µM
  viability, T/C: 73%
Second compound 0.316 µM, first compound 0.0316 µM
  viability, T/C: 99.3%
Second compound 0.316 µM, first compound 0.1 µM
  viability, T/C: 91.3%
Second compound 0.316 µM, first compound 0.316 µM
  viability, T/C: 95%
Second compound 0.316 µM, first compound 1 µM
  viability, T/C: 103%
Second compound 0.316 µM, first compound 3.16 µM
  viability, T/C: 93.8%
Second compound 0.316 µM, first compound 10 µM
  viability, T/C: 73.2%
Second compound 1 µM, first compound 0.0316 µM
  viability, T/C: 94.8%
Second compound 1 µM, first compound 0.1 µM
  viability, T/C: 96.4%
Second compound 1 µM, first compound 0.316 µM
  viability, T/C: 95.7%
Second compound 1 µM, first compound 1 µM
  viability, T/C: 97.5%
Second compound 1 µM, first compound 3.16 µM
  viability, T/C: 105%
Second compound 1 µM, first compound 10 µM
  viability, T/C: 69.4%
Second compound 3.16 µM, first compound 0.0316 µM
  viability, T/C: 89.9%
Second compound 3.16 µM, first compound 0.1 µM
  viability, T/C: 91.5%
Second compound 3.16 µM, first compound 0.316 µM
  viability, T/C: 97.5%
Second compound 3.16 µM, first compound 1 µM
  viability, T/C: 92.5%
Second compound 3.16 µM, first compound 3.16 µM
  viability, T/C: 99.8%
Second compound 3.16 µM, first compound 10 µM
  viability, T/C: 64.3%
Second compound 10 µM, first compound 0.0316 µM
  viability, T/C: 94.5%
Second compound 10 µM, first compound 0.1 µM
  viability, T/C: 77.6%
Second compound 10 µM, first compound 0.316 µM
  viability, T/C: 89%
Second compound 10 µM, first compound 1 µM
  viability, T/C: 92.5%
Second compound 10 µM, first compound 3.16 µM
  viability, T/C: 94.8%
Second compound 10 µM, first compound 10 µM
  viability, T/C: 62.5%

Reference: PubChem BioAssay AID2060484 (Molecular Pharmacology Branch, DTP, NCI, 2025)
